The values below come from ChEMBL document CHEMBL6074642, “Natural and Bioinspired Lipidic Alkynylcarbinols as Leishmanicidal, Antiplasmodial, Trypanocidal, Fungicidal, Antibacterial, and Antimycobacterial Agents” (J Nat Prod, 2024).

≈ marks a conversion by molar mass, not a printed value.

The subject of experiment [1] is Escherichia coli. As to the kind of experiment: Antibacterial activity against Escherichia coli DC2 assessed as reduction in bacterial growth. It counts as functional.
In experiment [2] the test system is Staphylococcus aureus. The experiment is described as follows: Antimicrobial activity against methicillin-sensitive Staphylococcus aureus K147 assessed as reduction in microbial growth. In kind it is functional.
For experiment [3], the system named is Staphylococcus aureus. The experiment is described as follows: Antibacterial activity against Staphylococcus aureus SAP0017 assessed as reduction in bacterial growth. It counts as functional.
In experiment [4] the test system is Bacillus subtilis. The experiment is described as follows: Antibacterial activity against Bacillus subtilis assessed as reduction in microbial growth. In kind it is functional.
Experiment [5] concerns Mycobacterium tuberculosis. The experiment is described as follows: Antimycobacterial activity against Mycobacterium tuberculosis H37Rv. It counts as functional.
The test system of experiment [6] is Mycobacterium tuberculosis. The experiment is described as follows: Antimycobacterial activity against Mycobacterium tuberculosis Erdman. It counts as functional.
Experiment [7] relates to Mycobacterium tuberculosis. The experiment is described as follows: Antimycobacterial activity against Mycobacterium tuberculosis Erdman ATCC 35801. It counts as functional.
For experiment [8], the system named is Bacillus subtilis. As to the kind of experiment: Antibacterial activity against Bacillus subtilis PY79 assessed as reduction in bacterial growth. It counts as functional, organism-based.
Experiment [9] concerns Leishmania donovani. The experiment is described as follows: Antileishmanial activity against Leishmania donovani amastigotes infected in J774 macrophage assessed as inhibition of parasite growth incubated for 48 hrs by luciferase assay. It counts as functional, organism-based. Particulars: J774, 48 h.
Another experiment has as its system Phytophthora capsici. The experiment is described as follows: Antifungal activity against Phytophthora capsici. In kind it is functional, organism-based.
The next experiment has as its system Leishmania amazonensis. The experiment is described as follows: Antileishmanial activity against leishmania amazonensis promastigotes MHOM/BR/77/LTB0016 assessed as assessed as parasite growth inhibition incubated for 72 hrs by Alamar Blue assay. In kind it is functional, organism-based. The settings on record: MHOM/BR/77/LTB0016, 72 h. For orientation: Resazurin is reduced to fluorescent resorufin, in cell work by metabolically active cells.

In a further experiment the test system is Bipolaris sorokiniana. The experiment is described as follows: Antifungal activity against Cochliobolus sativus. It counts as functional, organism-based.
In experiment [10] the test system is Colletotrichum gloeosporioides. The experiment is described as follows: Antifungal activity against Colletotrichum gloeosporioides. It counts as functional, organism-based.
The subject of the next experiment is Alternaria kikuchiana. The experiment is described as follows: Antifungal activity against Alternaria kikuchiana. It counts as functional, organism-based.
The subject of the next experiment is Streptococcus pyogenes. As to the kind of experiment: Antibacterial activity against Streptococcus pyogenes assessed as bacterial growth inhibition. It counts as functional.
Experiment [11] deals with Bacillus subtilis. The experiment is described as follows: Antibacterial activity against Bacillus subtilis. It counts as functional.
The subject of experiment [12] is Pseudomonas aeruginosa. As to the kind of experiment: Antibacterial activity against Pseudomonas aeruginosa assessed as reduction in bacterial growth incubated for 24 hrs by broth microdilution method. In kind it is functional, organism-based. In general terms: Broth dilution looks for growth in wells or tubes with falling amounts of substance.
In experiment [13] the test system is Mycobacterium intracellulare. As to the kind of experiment: Antibacterial activity against Mycobacterium intracellulare. In kind it is functional, organism-based.
Experiment [14] deals with Leishmania mexicana. The experiment is described as follows: Antileishmanial activity against Leishmania mexicana promastigotes. It counts as functional, organism-based.
For experiment [15], the system named is Leishmania mexicana. As to the kind of experiment: Antileishmanial activity against Leishmania mexicana amastigotes. In kind it is functional, organism-based.
In experiment [16] the test system is Escherichia coli. The experiment is described as follows: Antibacterial activity against Escherichia coli DC2. It counts as functional.
The subject of experiment [17] is Pseudomonas aeruginosa. The experiment is described as follows: Antibacterial activity against Pseudomonas aeruginosa ATCC 15442 […] assessed as reduction in bacterial growth after 18 to 20 hrs by CLSI-based broth microdilution assay. In kind it is functional. The settings on record: time 18-20 hrs.
Experiment [18] has as its system Staphylococcus aureus. As to the kind of experiment: Antibacterial activity against methicillin-resistant Staphylococcus aureus K147 assessed as reduction in bacterial growth. In kind it is functional.
The test system of experiment [19] is Staphylococcus aureus. The experiment is described as follows: Antibacterial activity against methicillin-resistant Staphylococcus aureus SAP0017 assessed as reduction in bacterial growth. It counts as functional.
For experiment [20], the system named is Bacillus subtilis. As to the kind of experiment: Antibacterial activity against Bacillus subtilis NBRC 3513. In kind it is functional.
In experiment [21] the test system is Leishmania donovani. The experiment is described as follows: Antileishmanial activity against amastigote form of Leishmania donovani infected in BALB/c mouse assessed as inhibition of parasite growth in liver at 10 mg/kg, po measured for 7 days by geimsa staining based analysis relative to control. In kind it is functional. Set-up: scale not given: the % may be the effect or the level left. Particulars: time 7 day.

For a further experiment, the system named is Plasmodium falciparum. The experiment is described as follows: Antiplasmodial activity against Plasmodium falciparum assessed as parasite growth inhibition. It counts as functional, organism-based.
The test system of another experiment is Enterococcus faecalis. The experiment is described as follows: Antibacterial activity against Enterococcus faecalis. It counts as functional.
For experiment [22], the system named is Mycobacterium tuberculosis. As to the kind of experiment: Antimycobacterial activity against Mycobacterium tuberculosis H37Ra. In kind it is functional, organism-based.
Experiment [23] concerns Mycolicibacterium smegmatis. As to the kind of experiment: Antimycobacterial activity against Mycobacterium smegmatis ATCC 14468. It counts as functional.
The next experiment relates to Mycolicibacterium phlei. The experiment is described as follows: Antimycobacterial activity against Mycobacterium phlei ATCC 11758. In kind it is functional.
In another experiment the test system is Mycolicibacterium aurum. As to the kind of experiment: Antimycobacterial activity against Mycobacterium aurum. It counts as functional.
Experiment [24] deals with Mycolicibacterium fortuitum. As to the kind of experiment: Antimycobacterial activity against Mycobacterium fortuitum ATCC 6841 assessed as bacterial growth inhibition incubated for 72 hrs by resazurin dye based broth microdilution method. It counts as functional.
The test system of experiment [25] is Mycobacteroides abscessus. The experiment is described as follows: Antimycobacterial activity against Mycobacterium abscessus ATCC 19977. In kind it is functional.

Consider `C=C[C@H](O)C#CC#C[C@@H](O)/C=C\CCCCCCC`, for which the MIC in the experiment on Escherichia coli [1] was 2.5 µg/mL (≈ 9.6 µM); in the experiment with Staphylococcus aureus [2] it was 12 µg/mL; in the experiment on Staphylococcus aureus [3], 25 µg/mL (≈ 96 µM); with Bacillus subtilis [4], 12 µg/mL; in experiment [5] it was 27 µg/mL (≈ 104 µM); in experiment [6] it was 6 µg/mL (≈ 23 µM). For the same compound, it took 6.2 µg/mL (≈ 23.8 µM) to inhibit growth in [7] (MIC).

As for `C#CC(O)/C=C/C(O)CCCC(O)C(O)C#CC(O)C#CCCCC(O)/C=C/CCCCCCCCCCCCCCCCCCCCCC(O)C(O)C#CC(=O)O` (stereo not drawn), in the experiment with Bacillus subtilis [8], the IC50 is 25 µg/mL (≈ 30.7 µM).

Regarding `C=C[C@H](O)C#CC#C[C@@H](CCCCCCCCC)NC(=O)c1ccccc1`, the IC50 in the experiment with Leishmania donovani [9] was found to be 5 nM.

In the experiment on Phytophthora capsici, `C=C[C@H](O)C#CC#C[C@H](O)c1cccs1` yielded an EC50 of 2.7 µg/mL (≈ 12.4 µM).

For the compound `C=CC(O)C#CC#C/C=C/C(O)CCCCCCC` (stereo not drawn), the IC50 in the experiment on Leishmania amazonensis came to 5800 nM.

As to `C=C[C@@H](O)C#CC#C[C@H](O)c1cccs1`, it took 31 µg/mL (≈ 142 µM) to reach a half-maximal effect with Phytophthora capsici (EC50).

With `C=C[C@H](O)C#CC#CC/C=C/CCCCCCCC`, the EC50 was found to be 9 µg/mL (≈ 34.8 µM) in the experiment on Bipolaris sorokiniana, 46 µg/mL (≈ 178 µM) in experiment [10] and 41 µg/mL (≈ 159 µM) in the experiment on Alternaria kikuchiana.

`C=C[C@@H](C#CC#C[C@@H](CCCCCCCCC)NS(C)(=O)=O)OC(C)=O`: in the experiment with Leishmania donovani [9], the IC50 worked out at 50 nM. The MIC in the experiment on Streptococcus pyogenes worked out at 8 µM (≈ 3.05 µg/mL); in the experiment on Bacillus subtilis [11] it was 4 µM (≈ 1.53 µg/mL).

Regarding `CCCCCC/C=C\CCCCCCCCC[C@@H](O)C#CC#CCO`, the figures for the IC50 (with Pseudomonas aeruginosa [12]; in experiment [13]) were 2600 nM and 23000 nM, respectively.

As for `C#CC(O)/C=C/C(O)CCCC(O)CC#CC(O)C#CCCCCC(=O)CCCCC/C=C/C(O)CCCCCCCCCCCCCC(O)C(O)C#CC(=O)O` (stereo not drawn), in the experiment on Bacillus subtilis [8], the IC50 is 12 µg/mL (≈ 15.1 µM).

In the experiment on Phytophthora capsici, `C=C[C@@H](O)C#CC#C[C@@H](O)c1cccs1` registered an EC50 of 3.3 µg/mL (≈ 15.1 µM).

`C=CCCCCC/C=C\CC#CC#C[C@@H](O)C=C`: the IC50 in the experiment on Leishmania mexicana [14] stood at 0.28 µg/mL (≈ 1.16 µM); in the experiment on Leishmania mexicana [15] it was 0.18 µg/mL (≈ 0.743 µM).

Regarding `C=CC(O)C#CC#CC(O)/C=C\C(O)CCCCCC` (stereo not drawn), the minimum inhibitory concentration (MIC) with Escherichia coli [16], with Pseudomonas aeruginosa [17], with Staphylococcus aureus [18], in the experiment on Staphylococcus aureus [19] and in the experiment with Bacillus subtilis [20] was 200 µg/mL (≈ 724 µM) in each case.

`C#CC(O)/C=C/C(O)CCCC(O)C(O)C#CC(O)C#CCCCCC(=O)CCCCC/C=C/C(O)CCCCCCCCCCCCC(O)C(O)C(O)C#CC(=O)O` (stereo not drawn): in the experiment with Bacillus subtilis [8], the IC50 was determined as 48 µg/mL (≈ 57.9 µM).

In the case of `C#CC(O)/C=C/C(O)CCCC(O)CC#CC(O)C#CC(O)CCCC(=O)CCCCC/C=C/C(O)CCCCCCCCCCCCCC(O)C(O)C#CC(=O)O` (stereo not drawn), the IC50 with Bacillus subtilis [8] came to 12 µg/mL (≈ 14.8 µM).

As to `C=C[C@H](O)C#CC#C[C@H](O)CCCCCCCCC`, the IC50 in the experiment with Leishmania donovani [9] was 13 nM; with Plasmodium falciparum, 0.271 µg/mL (≈ 1.03 µM). Also, the Activity in the experiment on Leishmania donovani [21] was 41%. The MIC with Enterococcus faecalis came out at 16 µM (≈ 4.2 µg/mL); with Streptococcus pyogenes it was 8 µM (≈ 2.1 µg/mL); in the experiment with Bacillus subtilis [11], 2 µM (≈ 0.525 µg/mL).

Take `CCCCCCCCCCCCCCCC[C@@H](O)C#CC#CCO`: the IC50 with Pseudomonas aeruginosa [12] turned out to be 1900 nM; in [13], 7700 nM.

For `C#CC(O)/C=C/C(O)CCCC(O)C(O)C#CC(O)C#CCCCCC(=O)CCCCC/C=C/C(O)CCCCCCCCCCCCCC(O)C(O)C#CC(=O)O` (stereo not drawn), the IC50 with Bacillus subtilis [8] came out at 25 µg/mL (≈ 30.7 µM).

For the compound `CCCCCCCC/C=C\CCCCCCCCC[C@@H](O)C#CC#CCO`, the IC50 in the experiment with Pseudomonas aeruginosa [12] is 2900 nM; in experiment [13], 17000 nM.

As for `CCCCCCCCCCCCC1CC1CCCC(O)C#CC#CCO` (stereo not drawn), the IC50 in the experiment with Pseudomonas aeruginosa [12] worked out at 1800 nM; in [13] it was 14000 nM.

`CCCC/C=C/C#CC#CC(O)CCCCCCC(=O)O` (stereo not drawn) registered an IC50 in experiment [22] of 25 µg/mL (≈ 86.1 µM).

Consider `C=CC(O)C#CC#CC(O)/C=C\CCCCCCC` (stereo not drawn), for which the IC50 in the experiment on Leishmania amazonensis worked out at 5700 nM.

As for `C=C[C@@H](O)C#CC#CC/C=C\CCCCCCCC`, a half-maximal effect in the experiment with Alternaria kikuchiana (EC50) was put at 48 µg/mL (≈ 186 µM).

In the case of `C=C[C@H](O)C#CC#CC/C=C\CCCCCCCC`, in the experiment on Bipolaris sorokiniana, the EC50 was 26 µg/mL (≈ 101 µM).

Take `C=C[C@H](O)C#CC#CC(O)/C=C\CCCCCCC` (stereo partly drawn): the MIC in experiment [23] turned out to be 4 µg/mL (≈ 15.4 µM); in the experiment on Mycolicibacterium phlei, 2 µg/mL (≈ 7.68 µM); against Mycolicibacterium aurum, 4 µg/mL (≈ 15.4 µM); in experiment [24], 4 µg/mL (≈ 15.4 µM); in experiment [25], 2 µg/mL (≈ 7.68 µM).

A word on the MIC: it is the lowest concentration found to suppress growth. One may read the IC50 as the midpoint of a concentration-inhibition curve. What is called EC50 is the midpoint of the concentration-response curve.
